{"source": "patent US20240075009A1", "about": "“TREATMENT OF S[…] PSILOCIN OR PSILOCYBIN” (NEW YORK UNIVERSITY, priority 2021, published 2024)", "assay_type_in_all_cases": "in vivo, human", "key": {"[1]": {"tested_on": "cancer patients", "experiment": "Composite desire for hastened death (DHD) score (5 loss-of-meaning items of the Demoralization Scale), crossover trial with psychotherapy", "settings": "for DHD within-subjects reduction relative to baseline: combined groups", "description": "(§1) 29 participants were randomly assigned to one of two groups: psilocybin (0.3 mg/kg) on the first medication session followed by niacin (250 mg) on the second session (i.e. psilocybin-first group), or niacin (250 mg) on the first medication session followed by psilocybin (0.3 mg/kg) on the second session (i.e. niacin-first group). Psilocybin and niacin were administered in identically appearing gelatin capsules.\n(§2) Participants received three 2-hour preparatory psychotherapy sessions in order to review the purpose and intention of participation in the study, treatment goals, and structure of the treatment sessions. Medications were administered in 8-hour treatment sessions which included a discussion of the participant's subjective experience with the treatment team to consolidate the memory of the experience and to begin the process of post-integrative psychotherapy. Participants also received three 2-hour post-medication integration sessions (repeated after the second dosing session) to further consolidate the memory of the experience and to continue the process of psychological integration. All psychotherapy treatment sessions were delivered by a dyadic therapy team trained in a blend of psychotherapies with an evidence base to support their use in cancer patients (drawing upon principles of palliative care therapy, existential psychotherapy, cognitive-behavioural therapy, psychoanalysis therapy, and transpersonal psychology) and were taught about the safety and clinical pharmacology of psilocybin. Each therapy dyad underwent six confidential one-to-one sessions to build their alliance and exchange ideas about psychedelic therapy. The trial employed a crossover design at seven weeks following the first drug administration, with an outcome assessment at 6.5 months (26 weeks) following the second drug administration (i.e. after the crossover).\n(§3) Two long-term follow ups (LTFUs) were carried out to assess the continued effect of psilocybin.\n(§4) Primary outcomes (suicidal ideation and desire for hastened death) were measured according to the following methods: • Beck Depression Inventory-II (BDI-II) (Beck et al., 1988)— this is a widely used self-report measure to assess depression. The BDI-II comprises 21 questions related to depressive symptoms experienced over the previous two weeks, and is rated on a […] (total score ranges from 0-63). Scores greater than 12 correlate with clinical depression. […] Item #9 on the BDI queries suicidal ideation with the following options: 0=I don't have any thoughts of killing myself; 1=I have thoughts of killing myself, but I would not carry them out; 2=I would like to kill myself; 3=I would kill myself if I had the chance. The BDI-II was assessed at baseline, 1-day prior to dose-1, 8-hours after dose-1, 1-day after dose-1, 2-weeks after dose-1, 6-weeks after dose-1, 7-weeks after dose-1 (corresponding to 1-day prior to dose-2), 1-day after dose-2, 6-weeks after dose-2, 26-weeks after dose-2, and at the 3.2 year and 4.5 year LTFU assessments. • The Brief Symptom Inventory (BSI) (Derogatis 1993) is a 53-item self-report questionnaire that assesses a range of psychiatric symptoms, generating 9 domains (depression, anxiety, phobic anxiety, somatization, obsession-compulsion, interpersonal sensitivity, hostility, paranoid ideation, psychoticism) and a global severity index."}, "[2]": {"tested_on": "cancer patients", "experiment": "Composite suicidal ideation (SI) score (BDI-II item #9 + BSI item #9, T-scores), crossover trial with psychotherapy", "settings": "for Composite SI within-subject effect size relative to baseline, Cohen's d: psilocybin-1st group", "description": "as §1, §2, §3, §4"}, "[3]": {"tested_on": "cancer patients", "experiment": "Primary outcomes DHD and SI taken together: within-subject effect sizes across measures and time points", "description": "as §1\nParticipants received three 2-hour preparatory psychotherapy sessions in order to review the purpose and intention of participation in the study, treatment goals, and structure of the treatment sessions. Medications were administered in 8-hour treatment sessions which included a discussion of the participant's subjective experience with the treatment team to consolidate the memory of the experience and to begin the process of post-integrative psychotherapy. […]\nPrimary outcomes (suicidal ideation and desire for hastened death) were measured according to the following methods: • Beck Depression Inventory-II (BDI-II) (Beck et al., 1988)— this is a widely used self-report measure to assess depression. […] It is measured on a Likert scale: 0=Not at all; 1=Little, 2=Moderately; 3=Quite a bit; 4=Extremely. […]"}, "[4]": {"settings": "after crossover, both dose-sequence groups combined, 6.5-month follow-up, p<0.001"}}, "data": [{"compound": "O=C(O)c1cccnc1", "note": "[niacin]", "values": [{"measurement": "Composite DHD score, main effect of time within group", "setting": "[1]; niacin-1st group (250 mg), prior to the crossover, p=0.079, n=5", "value": "no significant main effect of time"}, {"measurement": "Composite suicidality/SI score, main effect of time within group", "setting": "[2]; niacin-1st group (250 mg), prior to the crossover, p=0.065, n=5", "value": "no significant main effect of time"}]}, {"compound": "CN(C)CCc1c[nH]c2cccc(OP(=O)(O)O)c12", "note": "[psilocybin, [3-(2-dimethylaminoethyl)-1H-indol-4-yl] dihydrogen phosphate]", "values": [{"measurement": "DHD mean score relative to baseline, within psilocybin-1st group", "setting": "[1]; 2-weeks post dose-1, pre-crossover, p=0.005, n=6", "value": "differed significantly"}, {"measurement": "DHD between-group difference, psilocybin-1st vs niacin-1st, Cohen's d", "setting": "[1]; 2-weeks post dose-1, pre-crossover, psilocybin 0.3 mg/kg single dose, n=6 vs n=5", "value": 1.32}, {"measurement": "DHD within-subjects change relative to baseline", "setting": "[1]; [4]", "value": "statistically significant within-subjects reductions"}, {"measurement": "DHD within-subjects reduction relative to baseline", "setting": "[1]; after crossover, 3.2-year follow-up, p<0.001", "value": "remained significant"}, {"measurement": "DHD within-subjects reduction relative to baseline", "setting": "[1]; after crossover, 4.5-year follow-up, p<0.001", "value": "remained significant"}, {"measurement": "Composite SI within-subjects change relative to baseline", "setting": "[2]; [4]", "value": "statistically significant within-subjects reductions"}, {"measurement": "Composite SI, between-group comparison psilocybin-1st vs niacin-1st", "setting": "[2]; prior to the crossover, psilocybin 0.3 mg/kg, interaction p=0.065, group p=0.614", "value": "no significant differences between the two groups"}, {"measurement": "Composite SI within-subject effect size relative to baseline, Cohen's d", "setting": "[2]; 2-weeks post-dose 1, p<0.001", "value": 2.40}, {"measurement": "Composite SI within-subject effect size relative to baseline, Cohen's d", "setting": "[2]; 7-weeks post-dose 1, p<0.001", "value": 3.50}, {"measurement": "Composite SI within-subject effect size relative to baseline, Cohen's d", "setting": "[2]; 8-hours post-dose 1, p<0.001", "value": 2.40}, {"measurement": "Within-subjects effect sizes across DHD and SI and time points, Cohen's d range", "setting": "[3]; after crossover, combined groups, 6.5 months to 4.5 years", "value": "1.51-2.56"}, {"measurement": "Within-subject effect sizes across DHD and SI and time points, Cohen's d range", "setting": "[3]; psilocybin-1st group, pre-crossover, statistically significant reductions", "value": "1.20-3.50"}]}]}
